Tested on: CGS 21680-induced catalepsy in mice
Assay: Activity on CGS 21680-induced Catalepsy
Assay type: in vivo, mouse (male ddY)
Conditions: 10 mg/kg oral; for Total score (catalepsy): 10 animals, maximum 50 points, control 48; for Number of Animals showing remission: catalepsy score 4 points or less in 10 cases; for inhibition in vivo at 10 mg/kg: Mus musculus, CGS 21680-induced catalepsy, read-out: Remission ratio (%)
Description: Activity on CGS 21680-induced Catalepsy
Parkinson's disease is motor deficit based on the degeneration and cell death of the nigrostriatal dopaminergic neuron. […] [Journal of Neuroscience, 16: 605 (1996)]. Accordingly, it is considered that adenosine A2A receptor agonists positively regulate the output of the striopallidal GABAergic neurons and, as a result, catalepsy is induced by the administration of CGS 21680.
This test was carried out using 10 animals per group of male ddY mice of 5 week age (22 to 25 g in body weight, Japan SLC). CGS 21680 (manufactured by RBI) was dissolved in a physiological saline (manufactured by Otsuka Pharmaceutical), and 10 μg/20 μl of the solution was injected into mouse intracerebro-ventricle. Test compounds were used by suspending them in distilled water containing 0.3% of polyoxyethylene(20)sorbitan monooleate (hereinafter referred to as "Tween 80") (manufactured by Otsuka Pharmaceutical). […] One hour after the administration of the test compound, only forelimbs or only hindlimbs of each animal were laid on a vertically arranged stand made of acryl, having a size of 4.5 cm in height and 1.0 cm in width, to measure catalepsy symptoms. All of the compounds were administered orally in a dose of 10 mg/kg.
The effect was judged by total catalepsy scores of 10 animals in one group (the maximum is 50 points). When the total score was 40 points or less, the activity of drugs was judged positive. The number of animals showing remission of catalepsy was expressed by the number of cases in which the catalepsy score was 4 points or less in 10 cases. The catalepsy remission ratio was expressed as the percentage of the total score in the test compound-administered group to the total score in the control group.

Row | SMILES | Total score (catalepsy) | Number of Animals showing remission | inhibition in vivo at 10 mg/kg
1 | Cc1ncc(CN2CCN(c3cc4nc(-c5ccco5)nn4c(N)n3)CC2)s1 [Compound 145, 5-Amino-2-(2-furyl)-7-(4-(2-methylthiazol-5-ylmethyl)piperazinyl)[1,2,4]triazolo[1,5-c]pyrimidine] | 3 | 10 | 92%
2 | CCN1CCN(c2cc3nc(-c4ccco4)nn3c(N)n2)CC1 [Compound 60, 5-Amino-7-(4-ethylpiperazinyl)-2-(2-furyl)[1,2,4]triazolo[1,5-c]pyrimidine] | 10 | 8 | 76%
3 | Nc1ncc(C(=O)N2CCOCC2)c2nc(-c3ccco3)nn12 [Compound 177] | 13 | 9 | 72%
4 | Nc1nc(SCc2ccccc2Cl)cc2nc(-c3ccco3)nn12 [Compound 200, 5-Amino-7-(2-chlorobenzylthio)-2-(2-furyl)[1,2,4]triazolo[1,5-c]pyrimidine] | 14 | 9 | 70%
5 | CC(C)CN1CCN(c2cc3nc(-c4ccco4)nn3c(N)n2)CC1 [Compound 136, 5-Amino-2-(2-furyl)-7-(4-(2-methylpropyl)piperazinyl)[1,2,4]triazolo[1,5-c]pyrimidine] | 1 | 10 | 98%
6 | Nc1nc(N2CCN(c3nc4ccccc4s3)CC2)cc2nc(-c3ccco3)nn12 [Compound 95, 5-Amino-7-(4-(2-benzothiazolyl)piperazinyl)-2-(2-furyl)[1,2,4]triazolo[1,5-c]pyrimidine] | 16 | 8 | 66%
7 | COCCN1CCN(c2nc(N)n3nc(-c4ccco4)nc3c2C)CC1 [Compound 223, 5-Amino-2-(2-furyl)-7-(4-(2-methoxyethyl)piperazinyl)-8-methyl[1,2,4]triazolo[1,5-c]pyrimidine] | 15 | 9 | 68%
8 | COC(=O)c1ccc(CSc2cc3nc(-c4ccco4)nn3c(N)n2)cc1 [Compound 190, 5-Amino-2-(2-furyl)-7-(4-methoxycarbonylbenzylthio)[1,2,4]triazolo[1,5-c]pyrimidine] | 13 | 10 | 72%
9 | COCCOCCN1CCN(c2cc3nc(-c4ccco4)nn3c(N)n2)CC1 [Compound 104, 5-Amino-2-(2-furyl)-7-(4-(2-(2-methoxyethoxy)ethyl)piperazinyl)[1,2,4]triazolo[1,5-c]pyrimidine] | 4 | 10 | 92%
10 | Cc1c(N2CCN(CCO)CC2)nc(N)n2nc(-c3ccco3)nc12 [Compound 222, 5-Amino-2-(2-furyl)-7-(4-(2-hydroxyethyl)piperazinyl)-8-methyl[1,2,4]triazolo[1,5-c]pyrimidine] | 9 | 10 | 80%
11 | COCCN1CCN(c2cc3nc(-c4ccco4)nn3c(N)n2)CC1 [Compound 74, 5-Amino-7-[4-(2-methoxyethyl)piperazinyl]-2-(2-furyl)[1,2,4]triazolo[1,5-c]pyrimidine] | 0 | 10 | 98%
12 | Nc1nc(N2CCN(c3ncccn3)CC2)cc2nc(-c3ccco3)nn12 [Compound 64, 5-Amino-2-(2-furyl)-7-[4-(2-pyrimidyl)piperazinyl][1,2,4]triazolo[1,5-c]pyrimidine] | 5 | 10 | 88%
13 | Nc1nc(N2CCN(Cc3ccsc3)CC2)cc2nc(-c3ccco3)nn12 [Compound 146] | 3 | 10 | 94%
14 | Nc1nc(SCc2ccccc2C=O)cc2nc(-c3ccco3)nn12 [Compound 213, 5-Amino-7-(2-formylbenzylthio)-2-(2-furyl)[1,2,4]triazolo[1,5-c]pyrimidine] | 15 | 10 | 70%
15 | CCC(C)N1CCN(c2cc3nc(-c4ccco4)nn3c(N)n2)CC1 (racemic) [Compound 140, (±)-5-Amino-2-(2-furyl)-7-(4-(1-methylpropyl)piperazinyl)[1,2,4]triazolo[1,5-c]pyrimidine] | 13 | 10 | 74%
16 | Nc1nc(N2CCN(CCO)CC2)cc2nc(-c3ccco3)nn12 [Compound 62, 5-Amino-2-(2-furyl)-7-[4-(2-hydroxyethyl)piperazinyl][1,2,4]triazolo[1,5-c]pyrimidine] | 4 | 10 | 88%
17 | Nc1nc(N2CCN(CCCCF)CC2)cc2nc(-c3ccco3)nn12 [Compound 128, 5-Amino-7-(4-(4-fluorobutyl)piperazinyl)-2-(2-furyl)[1,2,4]triazolo[1,5-c]pyrimidine] | 9 | 10 | 80%
18 | C=CCCN1CCN(c2cc3nc(-c4ccco4)nn3c(N)n2)CC1 [Compound 125, 5-Amino-2-(2-furyl)-7-(4-homoallylpiperazinyl)[1,2,4]triazolo[1,5-c]pyrimidine] | 13 | 10 | 74%
19 | Nc1ncc(C(=O)N2CCCCC2)c2nc(-c3ccco3)nn12 [Compound 175] | 12 | 10 | 74%
20 | Nc1ncc(C=O)c2nc(-c3ccco3)nn12 [Compound 163, 5-Amino-8-formyl-2-(2-furyl)[1,2,4]triazolo[1,5-c]pyrimidine] | 3 | 10 | 94%
21 | Nc1nc(SCc2ccccc2F)cc2nc(-c3ccco3)nn12 [Compound 201, 5-Amino-7-(2-fluorobenzylthio)-2-(2-furyl)[1,2,4]triazolo[1,5-c]pyrimidine] | 10 | 10 | 78%
22 | Nc1nc(Oc2ccc(Br)cc2)cc2nc(-c3ccco3)nn12 [Compound 228] | 14 | 8 | 72%
23 | CC(C)N1CCN(c2cc3nc(-c4ccco4)nn3c(N)n2)CC1 [Compound 139, 5-Amino-2-(2-furyl)-7-(4-isopropylpiperazinyl)[1,2,4]triazolo[1,5-c]pyrimidine] | 10 | 9 | 80%
24 | Nc1nc(N2CCN(Cc3csnn3)CC2)cc2nc(-c3ccco3)nn12 [Compound 143, 5-Amino-2-(2-furyl)-7-(4-(1,2,3-thiadiazol-4-ylmethyl)piperazinyl)-2-(2-furyl)[1,2,4]triazolo[1,5-c]pyrimidine] | 0 | 10 | 98%
25 | Nc1nc(SCc2ccncc2)cc2nc(-c3ccco3)nn12 [Compound 181, 5-Amino-2-(2-furyl)-7-(4-picolylthio)[1,2,4]triazolo[1,5-c]pyrimidine] | 14 | 8 | 72%

Source: patent US6222035A, “[1,2,4] triazolo [1,5-C] pyrimidine derivatives” (Kyowa Hakko Kogyo Co., Ltd., priority 1997, dated 2001)
